According to publication PMC5902452, “In silico optimization of a guava antimicrobial peptide enables combinatorial exploration for peptide design” (Nature Communications, 2018):
≈ marks a conversion by molar mass, not a printed value. Peptide text beside a SMILES is read from it.

How the values were obtained:
human erythrocytes = assay: Hemolytic assay; details: SPOT-synthesized crude peptides; human red blood cells in NaCl 0.85%, 1 h, 37 °C; hemoglobin release at 546 nm; highest concentration 200 μg mL−1; 100% of hemolysis was not observed
Experimental: Fresh human venous blood was collected from volunteers in Vacutainer collection tubes containing sodium heparin as an anticoagulant (BD Biosciences, Franklin Lakes, NJ). The blood was centrifuged applying 151 × g force (1500 rpm) and the serum was removed and the blood cells were replaced and washed three times with the same volume of sterile NaCl 0.85% solution. Concentrated red blood cells were diluted tenfold in NaCl 0.85% solution and then exposed at twofold dilutions of peptides for 1 h at 37 °C, at identical concentrations used for antimicrobial assays, in the ratio of 1:1 (v/v), achieving a final volume of 100 μL. The assay was carried out in 96-well polypropylene microtiter plates. The positive control wells contained 1% of Triton X-100, representing 100% cell lysis, and negative control wells contained sterile saline. Hemoglobin release was monitored chromogenically at 546 nm using a microplate reader.

[1] = system: P. aeruginosa H1001 (fliC::luxCDABE); type: cell-based, Pseudomonas aeruginosa; details: SPOT-synthesized unpurified crude peptide (~70% purity); bioluminescent engineered P. aeruginosa; BM2 medium; 4 h, 37 °C; reduction of luminescence; 200 to 3 μg mL−1 tested
Experimental: A peptide array composed of 20 peptides (15 guavanins, 4 Pg-AMP1 fragments, and magainin 2) was designed and synthesized by Kinexus Bioinformatics Corporation (Vancouver, BC). Peptides were produced in a standard mass of 80 μg by using cellulose support in SPOT technology. The crude synthetic peptides were obtained from cellulose membrane discs that had already been treated with ammonia gas to release the peptides from the membrane. Peptides were then dissolved overnight in distilled water and subsequently evaluated for their biological activities, as described below.
The antimicrobial activity of the synthesized peptides was evaluated against an engineered luminescent P. aeruginosa H1001 (fliC::luxCDABE) strain in 96-well microplates. Aqueous solutions of peptides released from the cellulose spots were diluted twofold in BM2 medium [62 mM potassium phosphate buffer pH 7; 2 mM MgSO4; 10 μM FeSO4; 0.4% (wt/vol) glucose] down the eight wells of a 96-well plate, achieving a final volume of 25 μL in each well. Subsequently, 50 μL of overnight culture of P. aeruginosa H1001 (fliC::luxCDABE) were subcultured in 5 mL of fresh LB media and grown until they reached an OD600 of 0.4. This growing bacteria culture was then diluted 4:100 (v/v) into fresh BM2 media and 25 μL of this diluted bacterial culture was transferred to the microplate wells containing 25 μL of peptide solution. The final peptide concentrations tested ranged from 200 to 3 μg mL^−1. The plates were incubated for 4 h at 37 °C with constant shaking at 50 rpm. Luminescence was measured on a Tecan […]luor Plus Microplate Reader (Tecan US, Morrisville, NC). The antimicrobial activity was evaluated by the ability of the peptides to reduce the luminescence of P. aeruginosa-lux strain compared to untreated cells. The AMP magainin 2 and the carbapenem meropenem were used as positive controls and distilled water was used as a negative control.

Row | Structure (SMILES) | Hemolysis (human erythrocytes) | MIC [1]
1 | CSCC[C@H](NC(=O)[C@H](CCCNC(=N)N)NC(=O)[C@H](CO)NC(=O)[C@@H](N)CO)C(=O)N[C@@H](CCC(=O)O)C(=O)N[C@@H](CS)C(=O)N[C@@H](Cc1ccc(O)cc1)C(=O)N[C@@H](CCC(=O)O)C(=O)N[C@@H](CCC(N)=O)C(=O)N[C@@H](C)C(=O)N[C@@H](CCC(=O)O)C(=O)N[C@@H](CCCNC(=N)N)C(=O)N[C@@H](Cc1ccc(O)cc1)C(=O)NCC(=O)N[C@@H](Cc1ccc(O)cc1)C(=O)NCC(=O)NCC(=O)N[C@@H](Cc1ccc(O)cc1)C(=O)NCC(=O)NCC(N)=O [Fragment 1 (α-helix)] (H-SSRMECYEQAERYGYGGYGG-NH2) | > 200 µg/mL | > 200 µg/mL
2 | N=C(N)NCCC[C@H](NC(=O)CNC(=O)[C@H](CO)NC(=O)CNC(=O)[C@H](Cc1ccc(O)cc1)NC(=O)CNC(=O)CNC(=O)CNC(=O)[C@H](Cc1ccc(O)cc1)NC(=O)[C@H](CCCNC(=N)N)NC(=O)CNC(=O)CNC(=O)CNC(=O)[C@H](Cc1ccc(O)cc1)NC(=O)CNC(=O)CNC(=O)[C@H](Cc1ccc(O)cc1)NC(=O)CNC(=O)[C@H](Cc1ccc(O)cc1)NC(=O)[C@@H](N)CCCNC(=N)N)C(N)=O [Fragment 2 (net charge)] (H-RYGYGGYGGGRYGGGYGSGR-NH2) | 100 µg/mL | 200 µg/mL (≈ 99.2 µM)
3 | N=C(N)NCCC[C@H](NC(=O)CNC(=O)[C@H](CO)NC(=O)CNC(=O)[C@H](Cc1ccc(O)cc1)NC(=O)CNC(=O)CNC(=O)CNC(=O)[C@H](Cc1ccc(O)cc1)NC(=O)[C@H](CCCNC(=N)N)NC(=O)CNC(=O)CNC(=O)CNC(=O)[C@H](Cc1ccc(O)cc1)NC(=O)CNC(=O)CNC(=O)[C@H](Cc1ccc(O)cc1)NC(=O)CNC(=O)[C@@H](N)Cc1ccc(O)cc1)C(=O)NCC(N)=O [Fragment 3 (hydrophobicity)] (H-YGYGGYGGGRYGGGYGSGRG-NH2) | > 200 µg/mL | > 200 µg/mL
4 | CC(C)[C@H](NC(=O)CNC(=O)[C@H](CCC(N)=O)NC(=O)CNC(=O)[C@@H](NC(=O)[C@@H]1CCCN1C(=O)[C@H](CCC(N)=O)NC(=O)CN)C(C)C)C(=O)N[C@@H](CCC(=O)O)C(=O)N[C@@H](CCCNC(=N)N)C(=O)N[C@@H](CO)C(=O)N[C@@H](Cc1c[nH]cn1)C(=O)N[C@@H](CC(=O)O)C(=O)N[C@@H](CC(=O)O)C(=O)N[C@@H](CC(N)=O)C(=O)N[C@@H](CCCNC(=N)N)C(=O)N[C@@H](CC(N)=O)C(=O)N[C@@H](CCC(N)=O)C(=O)N1CCC[C@H]1C(=O)N[C@@H](CCCNC(=N)N)C(N)=O [Fragment 4 (hydrophobic moment)] (H-GQPVGQGVERSHDDNRNQPR-NH2) | > 200 µg/mL | > 200 µg/mL
5 | CC[C@H](C)[C@H](NC(=O)[C@H](CCCNC(=N)N)NC(=O)[C@H](CCC(=O)O)NC(=O)[C@H](Cc1ccc(O)cc1)NC(=O)[C@H](CCC(N)=O)NC(=O)[C@H](CCCCN)NC(=O)[C@H](CCSC)NC(=O)CNC(=O)[C@H](CCCNC(=N)N)NC(=O)[C@@H](N)CCCNC(=N)N)C(=O)N[C@@H](CO)C(=O)N[C@@H](CCCNC(=N)N)C(=O)N[C@@H](CC(=O)O)C(=O)N[C@@H](C)C(=O)N[C@@H](CC(N)=O)C(=O)N[C@@H](CCCNC(=N)N)C(=O)N[C@@H](CO)C(=O)N[C@@H](Cc1ccc(O)cc1)C(=O)N[C@@H](CCCNC(=N)N)C(=O)N[C@@H](CCCNC(=N)N)C(N)=O [Guavanin 1] (H-RRGMKQYERISRDANRSYRR-NH2) | > 200 µg/mL | 200 µg/mL (≈ 77 µM)
6 | CC[C@H](C)[C@H](NC(=O)[C@H](C)NC(=O)[C@H](CCC(=O)O)NC(=O)[C@H](CCC(=O)O)NC(=O)[C@H](Cc1ccc(O)cc1)NC(=O)[C@H](CCC(N)=O)NC(=O)[C@H](CCCNC(=N)N)NC(=O)[C@H](CCSC)NC(=O)[C@H](Cc1ccc(O)cc1)NC(=O)[C@H](CCCCN)NC(=O)[C@@H](N)CCCNC(=N)N)C(=O)N[C@@H](CCCNC(=N)N)C(=O)N[C@@H](CC(=O)O)C(=O)NCC(=O)N[C@@H](CC(N)=O)C(=O)N[C@@H](CCCNC(=N)N)C(=O)N[C@@H](CO)C(=O)N[C@H](C(=O)N[C@@H](CCCNC(=N)N)C(=O)N[C@@H](CCCNC(=N)N)C(N)=O)[C@@H](C)CC [Guavanin 3] (H-RKYMRQYEEAIRDGNRSIRR-NH2) | > 200 µg/mL | > 200 µg/mL
7 | CSCC[C@H](NC(=O)[C@H](Cc1ccc(O)cc1)NC(=O)[C@H](CCC(N)=O)NC(=O)[C@@H](N)CCCNC(=N)N)C(=O)N[C@@H](CCCNC(=N)N)C(=O)N[C@@H](Cc1ccc(O)cc1)C(=O)N[C@@H](CC(C)C)C(=O)N[C@@H](CCC(=O)O)C(=O)N[C@@H](CCC(N)=O)C(=O)N[C@@H](C)C(=O)N[C@@H](CCC(=O)O)C(=O)N[C@@H](CCCNC(=N)N)C(=O)N[C@@H](Cc1ccc(O)cc1)C(=O)N[C@H](C(=O)N[C@@H](CC(N)=O)C(=O)N[C@@H](CCCNC(=N)N)C(=O)N[C@@H](CC(N)=O)C(=O)N[C@@H](CC(C)C)C(=O)N[C@@H](CCCNC(=N)N)C(=O)N[C@@H](CCCNC(=N)N)C(N)=O)C(C)C [Guavanin 4] (H-RQYMRYLEQAERYVNRNLRR-NH2) | > 200 µg/mL | 100 µg/mL (≈ 36.8 µM)
8 | CC[C@H](C)[C@H](NC(=O)[C@H](CCCNC(=N)N)NC(=O)[C@H](CC(N)=O)NC(=O)[C@H](Cc1ccccc1)NC(=O)[C@H](Cc1ccc(O)cc1)NC(=O)[C@H](CCCNC(=N)N)NC(=O)[C@H](Cc1ccccc1)NC(=O)[C@H](C)NC(=O)[C@H](CCC(=O)O)NC(=O)[C@H](CCC(=O)O)NC(=O)[C@H](Cc1ccc(O)cc1)NC(=O)[C@H](CCSC)NC(=O)[C@H](CCC(=O)O)NC(=O)[C@H](CCSC)NC(=O)[C@H](CC(C)C)NC(=O)[C@H](CCCCN)NC(=O)[C@@H](N)CCCNC(=N)N)C(=O)N[C@@H](CO)C(=O)N[C@@H](CCCNC(=N)N)C(=O)N[C@@H](CCCNC(=N)N)C(N)=O [Guavanin 5] (H-RKLMEMYEEAFRYFNRISRR-NH2) | > 200 µg/mL | 100 µg/mL (≈ 37.1 µM)
9 | CC[C@H](C)[C@H](NC(=O)CNC(=O)[C@H](CCCNC(=N)N)NC(=O)[C@H](CC(N)=O)NC(=O)[C@H](Cc1ccccc1)NC(=O)[C@H](CO)NC(=O)[C@H](CCCNC(=N)N)NC(=O)[C@H](CO)NC(=O)[C@H](C)NC(=O)[C@H](CCC(N)=O)NC(=O)[C@H](CCCCN)NC(=O)[C@H](Cc1ccc(O)cc1)NC(=O)[C@H](CC(C)C)NC(=O)[C@H](CCC(=O)O)NC(=O)[C@H](CCSC)NC(=O)[C@@H](NC(=O)[C@H](CO)NC(=O)[C@@H](N)CCCNC(=N)N)[C@@H](C)CC)C(=O)N[C@@H](CCCNC(=N)N)C(=O)N[C@@H](CCCNC(=N)N)C(N)=O [Guavanin 6] (H-RSIMELYKQASRSFNRGIRR-NH2) | > 200 µg/mL | 100 µg/mL (≈ 40.5 µM)
10 | CC[C@H](C)[C@H](NC(=O)CN)C(=O)NCC(=O)N[C@@H](CCCCN)C(=O)N[C@@H](Cc1ccccc1)C(=O)N[C@@H](CC(C)C)C(=O)N[C@@H](Cc1c[nH]cn1)C(=O)N[C@@H](CO)C(=O)N[C@@H](C)C(=O)N[C@@H](CCCCN)C(=O)N[C@@H](CCCCN)C(=O)N[C@@H](Cc1ccccc1)C(=O)NCC(=O)N[C@@H](CCCCN)C(=O)N[C@@H](C)C(=O)N[C@@H](Cc1ccccc1)C(=O)N[C@H](C(=O)NCC(=O)N[C@@H](CCC(=O)O)C(=O)N[C@H](C(=O)N[C@@H](CCSC)C(=O)N[C@@H](CC(N)=O)C(=O)N[C@@H](CO)C(N)=O)[C@@H](C)CC)C(C)C [Magainin 2, reference compound] (H-GIGKFLHSAKKFGKAFVGEIMNS-NH2) | – | 100 µg/mL (≈ 40.6 µM)
